What follows are compounds tested on U23674 (mouse alveolar rhabdomyosarcoma primary culture).
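Note: alveolar rhabdomyosarcoma tumor culture.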

Row | SMILES | IC50 cell viability [µM]
1 | O=C(O[C@H]1CN[C@H](C#Cc2cc3ncnc(Nc4ccc(Cc5ccccc5)cc4)c3s2)C1)N1CCOCC1 | > 10
2 | COC(=O)Nc1nc2ccc(Oc3ccc(NC(=O)Nc4cc(C(F)(F)F)ccc4F)cc3)cc2s1 | > 10
3 | CN1CCN(Cc2ccc(-c3cc4ncnc(Nc5ccc(OCc6cccc(F)c6)c(Cl)c5)c4s3)o2)CC1 | > 10
4 | Fc1ccc(-c2ncn(C3CCNCC3)c2-c2ccnc(Oc3ccc4c(c3)OCO4)n2)cc1 | > 10
5 | NS(=O)(=O)c1cccc(-c2cc3ccncc3cc2OCc2ccccc2)c1 | > 10
6 | Nc1nccc(-c2c(-c3ccc(F)cc3)nn3cc(C(F)(F)F)ccc23)n1 | > 10
7 | COc1cc(C=NNc2ncnc3c2cnn3Cc2ccccc2)ccc1O | > 10
8 | Cc1nn(C)c2cc(N(C)c3ccnc(Nc4cccc(S(N)(=O)=O)c4)n3)ccc12 | > 10
9 | O=c1[nH]c2ccc(N=Cc3c(O)[nH]c4ccccc34)cc2[nH]1 | > 10
10 | FC(F)(F)c1cccc(Nc2nccc(-c3cnn4nc(-c5ccccc5)ccc34)n2)c1 | > 10
11 | COc1cc2ncn(-c3cc(O[C@H](C)c4ccccc4Cl)c(C(N)=O)s3)c2cc1OC | 0.1
12 | O=C1Nc2ccccc2C1=C1CCc2cc(O)ccc21 | > 10
13 | NC(=O)c1ccc2c(-c3ccnc(NCCCO)n3)c(-c3ccc(F)cc3)nn2c1 | > 10
14 | CN(C)CCOc1ccc(-c2nc(-c3ccncc3)c(-c3ccc4c(c3)CC/C4=N\O)[nH]2)cc1 | > 10
15 | CCn1c(-c2nonc2N)nc2c(C#CC(C)(C)O)nc(OCCNC)cc21 | 1.3
16 | CN(C)C(=O)O[C@H]1CN[C@H](C#Cc2cc3ncnc(Nc4ccc(OCc5cccc(F)c5)c(Cl)c4)c3s2)C1 | > 10
17 | COc1cccc(-n2ncc3c(N/N=C/c4ccncc4)ncnc32)c1 | > 10
18 | CNC(=O)c1cncc(/C=C/c2ccccc2Cl)c1 | > 10
19 | COc1ccc(-c2coc3ncnc(N)c23)cc1 | > 10
20 | COc1cc(N2CCN(C(C)C)CC2)ccc1Nc1nc(Nc2cccc3ncccc23)c2cc[nH]c2n1 | > 10
21 | CN1CCC(n2cnc(-c3ccc(F)cc3)c2-c2ccnc(Nc3ccccc3)n2)CC1 | > 10
22 | NS(=O)(=O)c1ccc(N=Nc2c(O)[nH]c3ccc(Cl)cc23)cc1 | > 10
23 | CCn1c(-c2nonc2N)nc2c(C#CC(C)(C)O)nc(OC[C@H](N)c3ccccc3)cc21 | 1.6

Row | SMILES | IC50 cell viability [µM]
24 | Cc1nnc(-c2ccc(C)c(-c3ccc(C(=O)Nc4cccc(C#N)c4)cc3)c2)o1 | > 10
25 | CCn1c(-c2nonc2N)nc2ccc(F)cc21 | > 10
26 | CNC(=O)c1cncc(/C=C/c2c(Cl)cccc2Cl)c1 | > 10
27 | COc1ccc2cc(-c3c(-c4ccncc4)nc(-c4ccc([S+](C)[O-])cc4)n3C)ccc2c1 (centres undefined) | > 10
28 | COc1cc2c(cc1Nc1nc(Nc3ccsc3C(N)=O)c3cc[nH]c3n1)N(C(=O)CN(C)C)CCC2 | 0.05
29 | NS(=O)(=O)c1ccc(N=Nc2c(O)[nH]c3ccc(-c4cnco4)cc23)cc1 | > 10
30 | CS(=O)(=O)CCNCc1nc(-c2ccc3ncnc(Nc4ccc(F)c(Cl)c4)c3c2)cs1 | > 10
31 | COc1cccc(-n2cnc3c(N/N=C/c4ccncc4)ncnc32)c1 | > 10
32 | NS(=O)(=O)c1ccc(Nc2cc(-c3ccc(O)c(F)c3)[nH]n2)cc1 | > 10
33 | CN(C)CCCNc1nccc(-c2c(-c3ccc(F)cc3)nn3cc(C(F)(F)F)ccc23)n1 | 2.2
34 | CN1CCC(C(=O)Nc2n[nH]c3nnc(-c4ccccc4)cc23)CC1 | > 10
35 | CS(=O)(=O)CCNCc1nc(-c2ccc3ncnc(Nc4ccc(OCc5cccc(C(F)(F)F)c5)cc4)c3c2)cs1 | > 10
36 | Cc1cc(Cl)cc2c(N=Nc3ccc(S(N)(=O)=O)cc3)c(O)[nH]c12 | > 10
37 | CS(=O)(=O)Nc1ccc(-c2ccc3c(NC(=O)C4CC4)n[nH]c3c2)cc1 | > 10
38 | Oc1[nH]c2ccccc2c1C=Nc1ccc(-n2cncn2)cc1 | > 10
39 | CN(C)c1cc2c(Nc3ccc4nc(Cc5ccccc5)[nH]c4c3)ncnc2cn1 | > 10
40 | COc1cccc(-c2c[nH]c3c(N/N=C/c4ccncc4)ncnc23)c1 | > 10
41 | Fc1cccc(COc2ccc(Nc3ncnc4sc(-c5ccco5)cc34)cc2Cl)c1 | > 10
42 | COc1ccc2cc(-c3c(-c4ccncc4)nc(-c4ccc([S+](C)[O-])cc4C)n3C)ccc2c1 (centres undefined) | > 10
43 | CCc1nccc2c1nc(-c1nonc1N)n2CC | > 10
44 | NC(=O)c1sc(-n2cnc3ccc(C(F)(F)F)cc32)cc1OCc1ccccc1Br | > 10
45 | O=C(Nc1n[nH]c2nc(-c3ccco3)ccc12)C1CC1 | > 10
46 | Cc1cc(O)cc(C)c1/C=C/c1cncc(-c2nn[nH]n2)c1 | > 10

Row | SMILES | IC50 cell viability [µM]
47 | CN1CCC(n2cnc(-c3ccc(F)cc3)c2-c2ccnc(NCCO)n2)CC1 | > 10
48 | CS(=O)(=O)CCNCc1ccc(-c2ccc3ncnc(Nc4ccc(OCc5ccccc5)c(Cl)c4)c3c2)o1 | > 10
49 | Fc1ccc(-c2ncn(CCCN3CCOCC3)c2-c2ccncc2)cc1 | > 10
50 | COc1cc2c(cc1Nc1nc(Nc3ccsc3C(N)=O)c3cc[nH]c3n1)N(C(=O)CN(C)C)CCC2(C)C | 0.4
51 | COc1cc(Nc2ncc(-c3ccccc3)o2)cc(OC)c1 | > 10
52 | CCOc1ccc2c(-c3ccnc(Nc4cccc(C(F)(F)F)c4)n3)cnn2n1 | > 10
53 | CC1(C)CC(n2cnc(-c3ccc(F)cc3)c2-c2ccnc(N)n2)CC(C)(C)N1 | 0.2
54 | COC(=O)Nc1nc2ccc(Oc3ccc(NC(=O)Nc4cccc(Br)c4)cc3)cc2[nH]1 | > 10
55 | Nc1nccc(-c2c(-c3ccc(F)cc3)ncn2C2CCC(O)CC2)n1 (centres undefined) | > 10
56 | COc1cc(Nc2ncc3c(C)nc(-c4cccc(C(F)(F)F)c4)n3n2)cc(OC)c1OC | > 10
57 | CCN1CCC(C(=O)Nc2n[nH]c3nnc(-c4cccc(F)c4F)cc23)CC1 | > 10
58 | CCn1c(-c2nonc2N)nc2c(N3CCCC3)nccc21 | > 10
59 | COc1ccc2cc(-c3c(-c4ccncc4)nc(-c4ccc(S(C)(=O)=O)cc4C)n3C)ccc2c1 | > 10
60 | Fc1ccc(-c2nn3ncccc3c2-c2ccnc(Nc3ccc4c(c3)OCCO4)n2)cc1 | > 10
61 | O=S(=O)(CCNCc1ccc(-c2ccc3ncnc(Nc4ccc(OCc5cccc(F)c5)c(Cl)c4)c3c2)o1)c1ccccc1 | > 10
62 | CC(C)c1ccc(Nc2nccc(-c3cnn4ncccc34)n2)cc1 | > 10
63 | COC(=O)Nc1nc2ccc(Oc3cccc(NC(=O)Nc4cc(C(F)(F)F)ccc4F)c3)cc2[nH]1 | > 10
64 | NS(=O)(=O)c1ccc(N=Cc2c(O)[nH]c3ccc4ncsc4c23)cc1 | > 10
65 | Nc1nc(-c2cccc(Cl)c2)c(-c2ccc3ncccc3n2)s1 | > 10
66 | CS(=O)(=O)CCNCc1ccc(-c2ccc3ncnc(Nc4ccc(OCc5cccc(F)c5)c(C(F)(F)F)c4)c3c2)o1 | 4.8
67 | Cc1ccc(C(=O)NC2CCC2)cc1-c1ccc(C(=O)NCC2CC2)cc1 | > 10
68 | CCn1c(-c2nonc2N)nc2ccccc21 | > 10
69 | Cc1ccc(O)cc1Nc1ccnc2cc(-c3ccccn3)ccc12 | > 10

From the supplement of paper PMC6580486
